Laboratory results taken from PubChem BioAssay AID256 (DTP/NCI, 2004).
Values joined by “and” are separate entries in the source; they are usually repeats but may differ in a detail not shown here. Identical values can stand only once. Toxic doses and inconclusive results are not listed.

Tested on: CD2F1 mice, L1210 leukemia ip, survival T/C
Assay: NCI In Vivo Anticancer Drug Screen. Data for tumor model L1210 Leukemia (intraperitoneal) in CD2F1 (CDF1) mice
Settings: higher = longer survival
Method in brief: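 Ratio T/C, where T is the treated-group value and C the vehicle-dosed control value, from mice implanted with a transplantable tumor.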

[1] = endpoint: mean survival time, dose: 100.0 mg/kg/injection, schedule: Q04DX003 (ip), vehicle: saline with Tween-80
[2] = endpoint: mean survival time, dose: 200.0 mg/kg/injection, schedule: Q04DX003 (ip), vehicle: saline with Tween-80
[3] = endpoint: mean survival time, dose: 400.0 mg/kg/injection, schedule: Q04DX003 (ip), vehicle: saline with Tween-80
[4] = endpoint: mean survival time, dose: 25.0 mg/kg/injection, schedule: Q01DX009 (ip), vehicle: Klucel (hydroxypropylcellulose) (HPC)
[5] = endpoint: mean survival time, dose: 50.0 mg/kg/injection, schedule: Q01DX009 (ip), vehicle: Klucel (hydroxypropylcellulose) (HPC)
[6] = endpoint: mean survival time, dose: 100.0 mg/kg/injection, schedule: Q01DX009 (ip), vehicle: Klucel (hydroxypropylcellulose) (HPC)
[7] = endpoint: mean survival time, dose: 200.0 mg/kg/injection, schedule: Q01DX009 (ip), vehicle: Klucel (hydroxypropylcellulose) (HPC)
[8] = endpoint: mean survival time, dose: 50.0 mg/kg/injection, schedule: Q01DX009 (ip), vehicle: saline with Tween-80
[9] = endpoint: mean survival time, dose: 100.0 mg/kg/injection, schedule: Q01DX009 (ip), vehicle: saline with Tween-80
[10] = endpoint: mean survival time, dose: 200.0 mg/kg/injection, schedule: Q01DX009 (ip), vehicle: saline with Tween-80
[11] = endpoint: mean survival time, dose: 100.0 mg/kg/injection, schedule: Q04DX002 (ip), vehicle: saline with Tween-80
[12] = endpoint: mean survival time, dose: 200.0 mg/kg/injection, schedule: Q04DX002 (ip), vehicle: saline with Tween-80
[13] = endpoint: mean survival time, dose: 400.0 mg/kg/injection, schedule: Q01DX009 (ip), vehicle: saline with Tween-80

For `CC(CCC(C)OS(C)(=O)=O)OS(C)(=O)=O` (stereo not drawn), the T/C (endpoint: mean survival time, dose: 4.0 mg/kg/injection, schedule: Q01DX009 (ip), vehicle: saline) was 118 % of control and 107 % of control and the T/C (endpoint: mean survival time, dose: 8.0 mg/kg/injection, schedule: Q01DX009 (ip), vehicle: saline) was 110 % of control.

For `COc1cc2c(cc1OC)C1CC(=O)C3=C(CCCC3)N1CC2` (stereo not drawn), the T/C [1] was 101 % of control, the T/C [2] was 95 % of control and the T/C [3] was 89 % of control.

`O=S(=O)(c1ccc(Cl)cc1)c1ccc(Cl)cc1` was tested, and the T/C (endpoint: mean survival time, dose: 100.0 mg/kg/injection, schedule: Q01DX001 (ip), vehicle: Klucel (hydroxypropylcellulose) (HPC)) was 93 % of control, the T/C (endpoint: mean survival time, dose: 200.0 mg/kg/injection, schedule: Q01DX001 (ip), vehicle: Klucel (hydroxypropylcellulose) (HPC)) was 90 % of control and the T/C (endpoint: mean survival time, dose: 400.0 mg/kg/injection, schedule: Q01DX001 (ip), vehicle: Klucel (hydroxypropylcellulose) (HPC)) was 96 % of control.

`CCN(CC)CCn1[nH]c2c3ccc(=O)cc3sc3c(NCCN)ccc1c32` was tested, and the T/C (endpoint: median survival time, dose: 1.5 mg/kg/injection, schedule: Q01DX009 (ip), vehicle: water) was 168 % of control, the T/C (endpoint: median survival time, dose: 1.56 mg/kg/injection, schedule: Q01DX005 (ip), vehicle: water) was 154 % of control and the T/C (endpoint: median survival time, dose: 3.0 mg/kg/injection, schedule: Q01DX005 (ip), vehicle: water) was 183 % of control. For the same compound, the T/C (endpoint: median survival time, dose: 3.0 mg/kg/injection, schedule: Q01DX009 (ip), vehicle: water) was 180 % of control, the T/C (endpoint: median survival time, dose: 3.12 mg/kg/injection, schedule: Q01DX005 (ip), vehicle: water) was 192 % of control and 244 % of control and the T/C (endpoint: median survival time, dose: 6.0 mg/kg/injection, schedule: Q01DX005 (ip), vehicle: water) was 152 % of control. For the same compound, the T/C (endpoint: median survival time, dose: 6.0 mg/kg/injection, schedule: Q01DX009 (ip), vehicle: water) was 216 % of control, the T/C (endpoint: median survival time, dose: 6.25 mg/kg/injection, schedule: Q01DX005 (ip), vehicle: water) was 186 % of control and 357 % of control and the T/C (endpoint: median survival time, dose: 12.0 mg/kg/injection, schedule: Q01DX005 (ip), vehicle: water) was 95 % of control. For the same compound, the T/C (endpoint: median survival time, dose: 12.0 mg/kg/injection, schedule: Q01DX009 (ip), vehicle: water) was 216 % of control and the T/C (endpoint: median survival time, dose: 12.5 mg/kg/injection, schedule: Q01DX005 (ip), vehicle: water) was 231 % of control and 357 % of control.

For `CC(=O)NC1CCCC(C)C1` (stereo not drawn), the T/C [1] was 96 % of control, the T/C [2] was 96 % of control and the T/C [3] was 96 % of control.

With `CC(=O)CC(C)(C)C1CCCCC1` the T/C [4] was 93 % of control, the T/C [5] was 93 % of control and the T/C [6] was 96 % of control. For the same compound, the T/C [7] was 93 % of control.

For `Cc1ccc(C(=O)c2ccc([N+](=O)[O-])cc2)cc1`, the T/C [1] was 94 % of control and the T/C [2] was 94 % of control.

In the case of `N=C(Oc1ccccc1)C(Cl)(Cl)Cl`, the T/C [8] is reported as 90 % of control, the T/C [9] is reported as 95 % of control and the T/C [10] is reported as 98 % of control.

`O=C1CSC(=S)N1/N=C/c1cc2c(cc1[N+](=O)[O-])OCO2` was tested, and the T/C (endpoint: mean survival time, dose: 75.0 mg/kg/injection, schedule: Q01DX001 (ip), vehicle: other) was 102 % of control and the T/C (endpoint: mean survival time, dose: 300.0 mg/kg/injection, schedule: Q01DX001 (ip), vehicle: other) was 90 % of control.

`Cc1c(OCC(=O)O)cc(Cl)c(Cl)c1Cl` was tested, and the T/C (endpoint: mean survival time, dose: 50.0 mg/kg/injection, schedule: Q04DX002 (ip), vehicle: saline with Tween-80) was 105 % of control, the T/C [11] was 102 % of control and the T/C [12] was 121 % of control.

In the case of `Nc1cc(Cl)ccc1C(=O)O`, the T/C [9] is reported as 103 % of control, the T/C [10] is reported as 104 % of control and the T/C [13] is reported as 86 % of control.

`Oc1ccc2cc3ccccc3cc2c1` was tested, and the T/C (endpoint: mean survival time, dose: 25.0 mg/kg/injection, schedule: Q01DX001 (ip), vehicle: DMSO) was 104 % of control, the T/C (endpoint: mean survival time, dose: 50.0 mg/kg/injection, schedule: Q01DX001 (ip), vehicle: DMSO) was 93 % of control and the T/C (endpoint: mean survival time, dose: 100.0 mg/kg/injection, schedule: Q01DX001 (ip), vehicle: DMSO) was 87 % of control and 93 % of control.

With `CC1(C)COCN1COC1CCCCC1` the T/C (endpoint: mean survival time, dose: 12.5 mg/kg/injection, schedule: Q01DX009 (ip), vehicle: suspension in saline) was 95 % of control, the T/C (endpoint: mean survival time, dose: 25.0 mg/kg/injection, schedule: Q01DX009 (ip), vehicle: suspension in saline) was 100 % of control and the T/C (endpoint: mean survival time, dose: 50.0 mg/kg/injection, schedule: Q01DX009 (ip), vehicle: suspension in saline) was 103 % of control. The T/C (endpoint: mean survival time, dose: 100.0 mg/kg/injection, schedule: Q01DX009 (ip), vehicle: suspension in saline) was 108 % of control and the T/C (endpoint: mean survival time, dose: 200.0 mg/kg/injection, schedule: Q01DX009 (ip), vehicle: suspension in saline) was 105 % of control.

`N#C/C(=C\c1cc(Cl)cc(Cl)c1O)c1ccc([N+](=O)[O-])cc1` was tested, and the T/C [8] was 89 % of control, the T/C [9] was 95 % of control and the T/C [10] was 96 % of control.

`O=NN(CCCl)C(=S)Nc1ccccc1` was tested, and the T/C (endpoint: mean survival time, dose: 100.0 mg/kg/injection, schedule: Q01DX001 (ip), vehicle: other) was 98 % of control and the T/C (endpoint: mean survival time, dose: 200.0 mg/kg/injection, schedule: Q01DX001 (ip), vehicle: other) was 98 % of control.

With `CCCCCCCCCCCCS` the T/C (endpoint: mean survival time, dose: 25.0 mg/kg/injection, schedule: Q04DX003 (ip), vehicle: saline with Tween-80) was 101 % of control, the T/C (endpoint: mean survival time, dose: 50.0 mg/kg/injection, schedule: Q04DX003 (ip), vehicle: saline with Tween-80) was 97 % of control and the T/C [1] was 100 % of control and 108 % of control. The T/C [2] was 91 % of control and the T/C [3] was 91 % of control.

With `CN1C=CC(C(C(N)=O)c2ccccc2)c2ccccc21` (stereo not drawn) the T/C [1] was 96 % of control, the T/C [2] was 102 % of control and the T/C [3] was 97 % of control.

`S=P(S)(c1ccccc1)c1ccccc1` was tested, and the T/C (endpoint: mean survival time, dose: 80.5 mg/kg/injection, schedule: Q01DX009 (ip), vehicle: saline with Tween-80) was 104 % of control, the T/C (endpoint: mean survival time, dose: 161.0 mg/kg/injection, schedule: Q01DX009 (ip), vehicle: saline with Tween-80) was 98 % of control and the T/C (endpoint: mean survival time, dose: 322.0 mg/kg/injection, schedule: Q01DX009 (ip), vehicle: saline with Tween-80) was 100 % of control.

`O=C(NC1CCc2ccccc21)c1ccccc1` (stereo not drawn) was tested, and the T/C [1] was 96 % of control, the T/C [2] was 94 % of control and the T/C [13] was 87 % of control. For the same compound, the T/C [3] was 97 % of control.

With `c1ccc2c[n+]3ccccc3cc2c1` the T/C (endpoint: mean survival time, dose: 12.5 mg/kg/injection, schedule: Q04DX003 (ip), vehicle: saline) was 97 % of control and the T/C (endpoint: mean survival time, dose: 25.0 mg/kg/injection, schedule: Q04DX003 (ip), vehicle: saline) was 98 % of control.

In the case of `CC(C)CN(CC(C)C)c1ccc([N+](=O)[O-])cc1[N+](=O)[O-]`, the T/C [9] is reported as 97 % of control, the T/C [10] is reported as 95 % of control and the T/C [13] is reported as 94 % of control.

With `O=C(Nc1ccccc1)Oc1c(Cl)cc(Cl)c2ccccc12` the T/C [11] was 88 % of control, the T/C [12] was 88 % of control and the T/C (endpoint: mean survival time, dose: 400.0 mg/kg/injection, schedule: Q04DX002 (ip), vehicle: saline with Tween-80) was 88 % of control.

For `NC1=NC(=O)/C(=C/c2ccccc2)S1`, the T/C [1] was 93 % of control, the T/C [2] was 97 % of control and the T/C [3] was 97 % of control.

In the case of `COC(=O)c1ccc(-c2ccccc2)cc1`, the T/C [4] is reported as 96 % of control, the T/C [5] is reported as 102 % of control and the T/C [6] is reported as 103 % of control. For the same compound, the T/C [7] was 105 % of control and the T/C (endpoint: mean survival time, dose: 400.0 mg/kg/injection, schedule: Q01DX009 (ip), vehicle: Klucel (hydroxypropylcellulose) (HPC)) was 102 % of control.

`S=c1[nH]nc(Nc2ccccc2Cl)s1` was tested, and the T/C (endpoint: mean survival time, dose: 100.0 mg/kg/injection, schedule: Q04DX003 (ip), vehicle: Klucel (hydroxypropylcellulose) (HPC)) was 95 % of control, the T/C (endpoint: mean survival time, dose: 200.0 mg/kg/injection, schedule: Q04DX003 (ip), vehicle: Klucel (hydroxypropylcellulose) (HPC)) was 95 % of control and the T/C (endpoint: mean survival time, dose: 400.0 mg/kg/injection, schedule: Q04DX003 (ip), vehicle: Klucel (hydroxypropylcellulose) (HPC)) was 95 % of control.

For `CS(=O)(=O)C([N+](=O)[O-])S(C)(=O)=O`, the T/C (endpoint: mean survival time, dose: 100.0 mg/kg/injection, schedule: Q01DX001 (ip), vehicle: saline) was 101 % of control, the T/C (endpoint: mean survival time, dose: 200.0 mg/kg/injection, schedule: Q01DX001 (ip), vehicle: saline) was 101 % of control and the T/C (endpoint: mean survival time, dose: 400.0 mg/kg/injection, schedule: Q01DX001 (ip), vehicle: saline) was 97 % of control.

For `COC(=O)/C=C\n1cnc2ccccc21`, the T/C (endpoint: mean survival time, dose: 75.0 mg/kg/injection, schedule: Q01DX009 (ip), vehicle: other) was 95 % of control, the T/C (endpoint: mean survival time, dose: 150.0 mg/kg/injection, schedule: Q01DX009 (ip), vehicle: other) was 101 % of control and the T/C (endpoint: mean survival time, dose: 300.0 mg/kg/injection, schedule: Q01DX009 (ip), vehicle: other) was 110 % of control.

With `CCOC(=O)c1ccc(OCC(=O)Nc2ccccc2)cc1` the T/C [9] was 97 % of control, the T/C [10] was 96 % of control and the T/C [13] was 103 % of control.

In the case of `O=C(OCc1ccccc1)c1ccccc1`, the T/C (endpoint: mean survival time, dose: 100.0 mg/kg/injection, schedule: Q04DX002 (ip), vehicle: Klucel (hydroxypropylcellulose) (HPC)) is reported as 90 % of control, the T/C (endpoint: mean survival time, dose: 200.0 mg/kg/injection, schedule: Q04DX002 (ip), vehicle: Klucel (hydroxypropylcellulose) (HPC)) is reported as 100 % of control and the T/C (endpoint: mean survival time, dose: 400.0 mg/kg/injection, schedule: Q04DX002 (ip), vehicle: Klucel (hydroxypropylcellulose) (HPC)) is reported as 90 % of control.
